Measured values taken from patent US9907791B2, “Ron inhibitors for use in preventing and treating bone loss” (UNIVERSITY OF UTAH RESEARCH FOUNDATION, priority 2014, dated 2018).

Tests used:
[1] = test system: ERK; test: Western blot of osteoclast lysates, ERK; type: cell-based, mice; settings: osteoclasts
Method: Cells were serum starved (0.5% FBS) for 3 hours prior to lysate collection. Inhibitors were added 1 hour prior to lysis and MSP was added 15 min prior to lysis when indicated. Cells were washed with 1×PBS and harvested in lysis buffer (25 mM Tris-HCl, pH 7.5, 0.42 M NaCl, 1.5 mM MgCl2, 0.5 mM EDTA, 1 mM DTT, 25% sucrose, and 0.1% Triton X-100) plus 100× protease arrest (Bioscience, Bozeman, Mont.) and 100× orthovanadate. Primary antibodies used for immunoblotting include: anti-MSP (Santa Cruz, sc-6090, Dallas, Tex.) at a 1:250 dilution, anti-pan Akt (Cell Signaling, #4691S, Beverly, Mass.) at a 1:1000 dilution, anti-pan Erk (Cell Signaling, #4695, Beverly, Mass.) at a 1:1000 dilution, anti-phospho Akt (Cell Signaling, #9271 L, Beverly, Mass.) at a 1:500 dilution, anti-phospho Erk (Cell Signaling, #4370S, Beverly, Mass.) at a 1:500 dilution, anti-Src (Cell Signaling, #2110, Beverly, Mass.) at a 1:500 dilution, and anti-phospho Src (Y416) (Cell Signaling, #2113, Beverly, Mass.) at a 1:500 dilution. The secondary antibodies used were HRP-conjugated anti-goat IgG (Santa Cruz, Dallas, Tex.) and anti-rabbit IgG (Santa Cruz, Dallas, Tex.). Chemiluminescent signals were detected using Immun-Star HRP (BioRad, Hercules, Calif.).

[2] = test system: bone marrow osteoclasts; test: Osteoclast resorption assay; type: cell-based, mice; settings: WT osteoclasts, inhibitors 10 μM or muRANK-Fc 10 μg/mL daily day 9 to 12
Method: Bone marrow osteoclasts were generated from 6 to 8 week old WT and RonTK−/− mice. Briefly, bone marrow was isolated from hindlimb bones and plated in α-MEM media containing 10% heat-inactivated fetal bovine serum (FBS, Sigma, St. Louis, Mo.), 100 units/mL penicillin-streptomycin (Hyclone), and 33 ng/mL human macrophage colony-stimulating factor (hM-CSF) (PeproTech, Rocky Hill, N.J.) for 24 hours. Non-adherent cells were collected and frozen for later use. To assess resorption activity, bone marrow precursor cells were thawed and seeded at a density of 1×10^5 cells per well in BioCoat Osteologic slides (BD Biosciences, San Jose, Calif.) in α-MEM media containing 10% FBS and antibiotics. After adhering overnight, media was removed and media containing 33 ng/mL hM-CSF and 9 ng/mL muRANKL (R & D systems, Minneapolis, Minn.) was added. The medium was changed every 3 days depending on acidification, and the assay was terminated as indicated. Recombinant human MSP was prepared and added daily as indicated. Cells were removed with 6% bleach and slides were viewed microscopically using phase-contrast with 20× magnification. Osteolytic resorption area within 5 representative fields was determined using Image J software, experiments were performed in triplicate. […]

[3] = In vivo bone labeling and histomorphometry; parameters: species or system mice; settings: normal, uninjected animals
Method: To label bones, mice were intraperitoneally injected with 20 mg/kg of calcein (Sigma-Aldrich, St. Louis, Mo.) or 30 mg/kg of Alizarin Complexone (Sigma-Aldrich, St. Louis, Mo.) in a 2% sodium bicarbonate solution. Mice 6 to 8 months of age were labeled 8 days and 2 days prior to euthanasia, respectively. Tibia were fixed in 70% ethanol, embedded in methylmethacrylate and sectioned. Bone histomorphometry on H and E sections and bone labeled sections were performed as previously described (Parfitt, et al. Report of the ASBMR Histomorphometry Nomenclature Committee. J. Bone Miner. Res. 1987, 2, 595-610). Analysis of bone volume (BV/TV), and trabecular spacing (Tb. Sp.) were performed on the metaphyseal region of tibia sections stained with H and E. Bone formation rate (BFR) per bone surface (BS) and mineral apposition rate (MAR) of trabeculae were calculated within the metaphyseal region of the tibia. For all histomorphometry, three sections per mouse with 4 to 5 mice per group were analyzed. Analysis was performed using Bioquant Osteo software (Bioquant Image Analysis Corporation, Nashville, Tenn.).

With `CCOc1ccn(-c2ccc(F)cc2)c(=O)c1C(=O)Nc1ccc(Oc2ccnc(N)c2Cl)c(F)c1` [ASLAN002] the ERK activity [1] was “no effect”, the “MSP-induced increase in osteoclast resorption (resorption area)” value [2] was “dramatically reduced” and the “bone formation rate per total bone surface” value [3] was “not significant”. For the same compound, the mineral apposition rate [3] was “not significant”.
